Test results as given in publication PMC7058788, “GLI1 Inhibitor SRI-38832 Attenuates Chemotherapeutic Resistance by Downregulating NBS1 Transcription in BRAF^V600E Colorectal Cancer” (Frontiers in Oncology, 2020).
Several values for one entry are separate records, joined by “and”; a condition that tells them apart may be missing. Equal values may be shown once.

What was measured:
HCT8 [1] = assay: CellTiter-Glo Luminescent Cell Viability (cell proliferation) assay; assay type: cell-based, human; conditions: for IC50: Homo sapiens, HCT-8, Figure 5B-D, HCT8 (low GLI1 expression), unit inferred, x-axis in μM
Method: (§1) Confluent monolayers of cells were trypsinized, and 10,000 cells suspended in 200 μl of medium were added to each well of the 96-well plate. […] The proliferation of the cells was determined using the CellTiter-Glo Luminescent Cell Viability Assay kit (Promega).

HT29 [2] = assay: as above; assay type: cell-based, human
Method: as §1

NBS1 = assay: Western blot analysis of MRN components and damage/apoptosis markers in HT29 cells; assay type: cell-based, human; conditions: HT29, 20 μM, 72 h
Method: Cells were seeded in six-well plates and cultured until 70–80% confluent in 10% FBS-supplemented RPMI medium with L-glutamine and maintained at 37°C with 5% CO2. The cells were then treated with/without GANT61, SRI-38832, or 5-FU as indicated in the figure legends, and protein isolates were analyzed by Western blot. Briefly, 15 μg of protein was loaded and separated on a SDS-PAGE gel. Proteins were transferred to polyvinylidene difluoride (PVDF) membranes overnight. Membranes were washed in TBS-T, blotted in primary antibody overnight at 4°C, and subsequently washed and blotted with HRP-linked secondary antibody for 1 h. Membranes were developed and images were taken on an ImageQuant LAS 4000.

HCT116 [3] = assay: Annexin V/PI flow cytometry, cell death; assay type: cell-based, human; conditions: 10 and 20 μM, 72 h; low GLI1 and NBS1
Method: (§2) Cells were treated, in duplicate, as described in the figure legends. At the end of treatment, cells were collected by trypsinization and incubated with Annexin V FITC (BD Biosciences) and PI (Sigma) prior to analysis using a FACS Calibur flow cytometer. Data was analyzed using FlowJo software.

HCT8 [4] = assay: Annexin V/PI flow cytometry, cell death; assay type: cell-based, human; conditions: 10 and 20 μM, 72 h; high GLI1 and NBS1
Method: as §2

SW480 = assay: Annexin V/PI flow cytometry, cell death; assay type: cell-based, human; conditions: 10 and 20 μM, 72 h; low GLI1 and NBS1
Method: as §2

HT29 [5] = assay: Annexin V/PI flow cytometry, cell death/apoptosis; assay type: cell-based
Method: as §2

HCT116 [6] = assay: COMET assay, DNA damage by tail length; assay type: cell-based, human; conditions: 20 μM, 48 h
Method: (§3) Cells were treated with/without GANT61 (20 μM), SRI-38832 (20 μM) or 5-FU (20 μM) for 48 h, subsequently trypsinized and washed in PBS before being added to preheated (37°C), low-melting point agarose. The solution was pipetted onto slides pre-coated with 1% agarose. The chilled slides were allowed to lyse for 40 min at 4°C in 2.5 M NaCl,100 mM EDTA (pH 10), 10 mM Tris Base, 1% SDS, 1% Triton X−100 prior to immersion in alkaline electrophoresis solution (300 mM NaOH, 1 mM EDTA, pH 13). After 30 min, slides were placed into a horizontal electrophoresis chamber for ~30 min (1 V/cm at 4°C). The slides were washed with deionized H2O to remove the alkaline buffer, dehydrated in 70% ice–cold EtOH and air-dried overnight. Slides were stained with SYBR-Green and examined by microscopy. Tail length (TL) was used to quantify the DNA damage. Image analysis and quantification has been performed with ImageJ.

HT29 [7] = assay: COMET assay, DNA damage by tail length; assay type: cell-based, human; conditions: 20 μM, 48 h
Method: as §3

CRC = conditions: 5-FU and its combinational treatment (FOLFOX), in the clinic; cited from earlier work
BRAF^V600E variant = test system: BRAF^V600E variant; parameters: method as in PMID 26460303; conditions: single agent, BRAF^V600E CRC patients; cited from earlier work
NBS1 mRNA = NBS1 mRNA qRT-PCR in HT29 cells; assay type: cell-based, human; conditions: GANT61 as early as 24 h post treatment
Method: Total RNA was extracted by Invitrogen™ PureLink™ RNA Mini Kit (Fisher scientific) and cDNAs were synthesized with the ThermoScript reverse transcriptional system. qRT-PCR was performed to assess the enrichment of the specific proteins along the NBS1 ORF using specific primer pairs: NBS1-primer-1-F:[…],NBS1-primer-1-R: […]. Human GAPDH cDNA was used as an internal control.

MRN complex = assay: Confocal microscopy, NBS1 signal and NBS1/MRE11 co-localization in HT29 cells; assay type: cell-based, human
Method: Cells were plated at a density of 50,000 cells/well in six-well plates on coverslips and allowed to attach overnight. Media was removed and cells were treated with/without GANT61 (20 μM) for 48 h. Coverslips were removed and placed in a humidity chamber for fixation by absolute methanol for 10 min at 4°C. Cells were permeabilized with acetone for 1 min at 4°C. After washing with PBS × 3, cells were incubated with the diluted primary antibody overnight at 4°C. Cells were subsequently washed x 3 and incubated with appropriate secondary antibody at room temperature in the dark for 1 h. After washing with PBS, cell nuclei were stained with DAPI at RT for 5–10 min. Confocal images were acquired on a Nikon A1 laser confocal system with a Nikon Eclipse Ti microscope and a 60X Plan Apo objective. Lasers used were 405 nm for blue, 488 nm for green, and 561 nm for red. NIS Elements AR 4.5000 software was used to acquire Z-stacks of each channel sequentially to avoid spectral cross talk. Each slice was captured at a 0.15 μm step. Primary antibodies used were γH2AX (Millipore 1:200), NBS1 (Novus 1:200), and MRE11 (Cell Signaling 1:200). The co-localization index for specific foci and fluorescent intensity were calculated by ImageJ.

[8] = parameters: method as in PMID 29338454; conditions: cited from earlier work
GLI1 = biological target: T1, GLI1 (Homo sapiens, UniProt P08151); assay: ChIP assay, GLI1 enrichment on the NBS1 promoter in HT29 cells; assay type: cell-based; conditions: HT29, 20 μM, 24 h
T1 construct: HT29, which express GLI1 and have high basal NBS1 expression; endogenous in cells; host or cells: HT29
T1 sequence (P08151 1-1106): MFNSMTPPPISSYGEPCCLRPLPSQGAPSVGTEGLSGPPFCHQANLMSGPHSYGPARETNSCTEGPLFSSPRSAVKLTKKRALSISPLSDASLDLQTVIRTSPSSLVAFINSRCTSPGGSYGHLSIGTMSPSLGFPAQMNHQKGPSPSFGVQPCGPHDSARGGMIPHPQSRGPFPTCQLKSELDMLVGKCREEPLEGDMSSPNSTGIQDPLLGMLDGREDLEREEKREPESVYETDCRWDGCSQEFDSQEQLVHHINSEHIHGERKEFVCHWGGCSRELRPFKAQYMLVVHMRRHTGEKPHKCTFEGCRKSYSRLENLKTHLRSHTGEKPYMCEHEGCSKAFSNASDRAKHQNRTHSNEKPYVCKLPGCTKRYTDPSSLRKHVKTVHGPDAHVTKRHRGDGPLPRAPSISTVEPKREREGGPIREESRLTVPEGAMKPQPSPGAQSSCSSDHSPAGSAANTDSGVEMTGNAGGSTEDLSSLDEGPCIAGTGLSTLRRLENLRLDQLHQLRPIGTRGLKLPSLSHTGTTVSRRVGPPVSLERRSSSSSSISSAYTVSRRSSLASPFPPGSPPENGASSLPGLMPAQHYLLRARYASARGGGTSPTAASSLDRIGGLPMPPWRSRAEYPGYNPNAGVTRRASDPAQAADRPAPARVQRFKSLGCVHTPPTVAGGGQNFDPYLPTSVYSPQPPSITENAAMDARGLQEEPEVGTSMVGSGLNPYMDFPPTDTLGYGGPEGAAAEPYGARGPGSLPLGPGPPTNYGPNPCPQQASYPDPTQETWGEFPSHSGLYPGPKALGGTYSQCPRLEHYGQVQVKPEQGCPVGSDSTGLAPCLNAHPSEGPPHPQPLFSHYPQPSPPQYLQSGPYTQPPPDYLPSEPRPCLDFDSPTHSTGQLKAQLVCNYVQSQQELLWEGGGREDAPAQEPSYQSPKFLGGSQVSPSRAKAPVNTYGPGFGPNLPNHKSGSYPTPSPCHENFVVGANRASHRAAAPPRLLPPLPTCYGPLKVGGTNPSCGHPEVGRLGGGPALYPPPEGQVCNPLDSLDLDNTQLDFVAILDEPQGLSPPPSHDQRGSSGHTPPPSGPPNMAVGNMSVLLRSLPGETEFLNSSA
Method: HT29 cells (2 × 10^6) were seeded in T75 flasks. After overnight attachment, cells were treated with/without GANT61 (20 μM) or SRI-38832 (20 μM) for 24 h. The cells were trypsinized, washed with 1x PBS and fixed with 1.1% formaldehyde for 10 min at RT. Glycine (0.125 M) was added to stop the reaction. Cells were washed with PBS × 1 and lysed using the ChIP kit according to the manufacturer's instructions (Abcam, Ab500). To fragment the DNA, the cells were sonicated (30 s with 30 s cooling repeatedly for 15 cycles) to obtain fragmented DNA from 100 bp to 1 kB which was verified by agarose gel migration. Lysates were subjected to immunoprecipitation overnight at 4°C with 10 μg of anti-human antibodies for GLI1 (Novus) and Histone H3 for positive control provided by the Abcam ChIP kit. The complex was subsequently incubated with Dynabeads protein G (Invitrogen) for 2 h, 4°C, on a rotating wheel. Beads were washed for 10 min at 4°C with low salt buffer (2x TE, 150 mM NaCl, 1% Triton X-100, 0.1% SDS). Beads were then washed for 10 min at 4°C with high salt buffer (2x TE, 500 mM NaCl, 1% Triton X-100, 0.1% SDS). Next, beads were washed for 10 min at 4° with LiCl buffer (1x TE, 1% NP-40, 0.25 M LiCl, 1% deoxycholate). […]

[9] = Homo sapiens, HT-29, Figure 5B-D, HT29 (high GLI1 expression), unit inferred, x-axis in μM
[10] = Homo sapiens, HT-29, Figure 5E, comparison on HT29, unit inferred
[11] = Homo sapiens, HT-29, HT29, values in running text

## O=c1[nH]cc(F)c(=O)[nH]1 [5-FU, 5-fluorouracil]
HCT8 [1]; HCT8 vs HT29
  IC50 in HCT8 lower than in HT29: 5 fold
HCT8 [1]
  IC50: 110 µM
HT29 [2]; [9]
  IC50: 528 µM
HT29 [2]; [10]
  IC50: 525 µM
HT29 [2]; [11]
  IC50: 625 µM
NBS1
  expression of MRE11 and RAD50: did not result in any significant decreases
  total NBS1 protein level: did not result in any significant decreases
HCT116 [3]
  sensitivity to 5-FU treatment (cell death): highly sensitive
HCT8 [4]
  sensitivity to 5-FU treatment (cell death): resistant
SW480
  sensitivity to 5-FU treatment (cell death): highly sensitive
HT29 [5]; 10 and 20 μM, 72 h, high GLI1 and NBS1
  sensitivity to 5-FU treatment (cell death): resistant
HT29 [5]; shGLI1 HT29 cells
  apoptotic cells after 5-FU treatment: about 60%
HT29 [5]; siNBS1 HT29 cells
  apoptotic cells after 5-FU treatment: Over 40%
HT29 [5]; vector HT29 cells (shGLI1 experiment)
  dead cells after 5-FU treatment: 20%
HCT116 [6]
  tail length relative to control: about 3.5 time of control
HT29 [7]
  induction of DNA damage (comet assay): did not
CRC
  overall response rate: 10–15%

## CCCS(=O)(=O)Nc1ccc(F)c(C(=O)c2c[nH]c3ncc(-c4ccc(Cl)cc4)cc23)c1F [Vemurafenib]
BRAF^V600E variant
  response rate: < 5%

## CN(C)c1ccccc1CN1CCCN(Cc2ccccc2N(C)C)C1c1ccncc1 [GANT61]
HT29 [2]; Figure 6A, HT29, unit inferred
  IC50: 22 µM
HT29 [2]; HT29, values in running text
  IC50: 21.9 µM and 21 µM
NBS1
  expression of MRE11 and RAD50: did not substantially alter
  total NBS1 protein level: significantly decreased
  γ-H2AX level: increased levels
NBS1 mRNA
  NBS1 mRNA level: significantly decreased
HT29 [5]; GANT61 20 μM, 72 h, NBS1, S343A or S343E overexpressing HT29
  cells rescued from apoptosis after GANT61 treatment by overexpression of any NBS1 vector: ~ 25%
HT29 [5]; time-course, 48 h of treatment
  apoptotic HT29 cells: ~40%
MRN complex; HT29, 20 μM
  co-localization of NBS1 and MRE11: significant decrease
MRN complex; HT29, 20 μM (24 h in text, 48 h in legend and method)
  fluorescent signal of NBS1: significantly reduced
HT29 [7]
  tail length relative to control: 2.5 time of control
[8]
  stability in vivo: hydrolyzed and loses biological activity in vivo
GLI1
  GLI1 binding enrichment on the NBS1 promoter: significantly reduced

## CS(=O)(=O)c1ccc(C(=O)Nc2ccc(Cl)c(-c3ccccn3)c2)c(Cl)c1 [Vismodegib]
HCT8 [1]
  IC50: 80.5 µM
HT29 [2]; HT29 cells
  IC50 higher than GANT61: 4 fold
HT29 [2]; [9]
  IC50: 78.7 µM
HT29 [2]; [10]
  IC50: 81.4 µM
HT29 [2]; [11]
  IC50: ~80 µM
